# From PubChem BioAssay (NCI)
#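 The compound was tested at five concentrations on cells cultured in 96-well plates, with a 48-hour exposure period. The concentration for 50% growth inhibition is given as GI50. TGI marks complete inhibition of growth.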
# How the values were obtained:
# Test in all cases: inhibition of tumour cell growth, NCI panel, 48 h
# 786-0 renal = test system: 786-0 renal
# A498 renal = test system: A498 renal
# A549 NSCLC = test system: A549 NSCLC
# ACHN renal = test system: ACHN renal
# BT-549 breast = test system: BT-549 breast
# CAKI-1 renal = test system: CAKI-1 renal
# CCRF-CEM leukemia = test system: CCRF-CEM leukemia
# COLO 205 colon = test system: COLO 205 colon
# DU-145 prostate = test system: DU-145 prostate
# HCC-2998 colon = test system: HCC-2998 colon
# HCT-116 colon = test system: HCT-116 colon
# HCT-15 colon = test system: HCT-15 colon
# HL-60(TB) leukemia = test system: HL-60(TB) leukemia
# HOP-62 NSCLC = test system: HOP-62 NSCLC
# HS 578T breast = test system: HS 578T breast
# HT29 colon = test system: HT29 colon
# IGROV1 ovarian = test system: IGROV1 ovarian
# K-562 leukemia = test system: K-562 leukemia
# KM12 colon = test system: KM12 colon
# LOX IMVI melanoma = test system: LOX IMVI melanoma
# M14 melanoma = test system: M14 melanoma
# MALME-3M melanoma = test system: MALME-3M melanoma
# MCF7 breast = test system: MCF7 breast
# MDA-MB-231 breast = test system: MDA-MB-231 breast
# MDA-MB-435 = test system: MDA-MB-435
# MOLT-4 leukemia = test system: MOLT-4 leukemia
# NCI-H226 lung = test system: NCI-H226 lung
# NCI-H23 lung = test system: NCI-H23 lung
# NCI-H460 lung = test system: NCI-H460 lung
# NCI-H522 lung = test system: NCI-H522 lung
# NCI/ADR-RES ovarian = test system: NCI/ADR-RES ovarian
# OVCAR-3 ovarian = test system: OVCAR-3 ovarian
# OVCAR-4 ovarian = test system: OVCAR-4 ovarian
# OVCAR-5 ovarian = test system: OVCAR-5 ovarian
# OVCAR-8 ovarian = test system: OVCAR-8 ovarian
# PC-3 prostate = test system: PC-3 prostate
# RPMI-8226 leukemia = test system: RPMI-8226 leukemia
# RXF 393 renal = test system: RXF 393 renal
# SF-268 CNS = test system: SF-268 CNS
# SF-295 CNS = test system: SF-295 CNS
# SF-539 CNS = test system: SF-539 CNS
# SK-MEL-2 melanoma = test system: SK-MEL-2 melanoma
# SK-MEL-28 melanoma = test system: SK-MEL-28 melanoma
# SK-MEL-5 melanoma = test system: SK-MEL-5 melanoma
# SK-OV-3 ovarian = test system: SK-OV-3 ovarian
# SN12C renal = test system: SN12C renal
# SNB-19 CNS = test system: SNB-19 CNS
# SNB-75 CNS = test system: SNB-75 CNS
# SR leukemia = test system: SR leukemia
# SW-620 colon = test system: SW-620 colon
# T-47D breast = test system: T-47D breast
# U251 CNS = test system: U251 CNS
# UACC-257 melanoma = test system: UACC-257 melanoma
# UACC-62 melanoma = test system: UACC-62 melanoma
# UO-31 renal = test system: UO-31 renal
smiles,measurement,setting,value
COc1cc(/C=C/C(=O)c2ccc(Cl)cc2)ccc1OS(=O)(=O)c1ccc(C)cc1,GI50,786-0 renal,10.7 µM
same,TGI,786-0 renal,24.6 µM
same,GI50,A498 renal,28.8 µM
same,TGI,A498 renal,> 100 µM
same,GI50,A549 NSCLC,18.4 µM
same,TGI,A549 NSCLC,> 100 µM
same,GI50,ACHN renal,9.68 µM
same,TGI,ACHN renal,22.2 µM
same,GI50,BT-549 breast,5.64 µM
same,TGI,BT-549 breast,18.7 µM
same,GI50,CAKI-1 renal,11.1 µM
same,TGI,CAKI-1 renal,44.4 µM
same,GI50,CCRF-CEM leukemia,2.46 µM
same,TGI,CCRF-CEM leukemia,7.19 µM
same,GI50,COLO 205 colon,12.3 µM
same,TGI,COLO 205 colon,39.7 µM
same,GI50,DU-145 prostate,16.4 µM
same,TGI,DU-145 prostate,45.2 µM
same,GI50,HCC-2998 colon,12.4 µM
same,TGI,HCC-2998 colon,26.7 µM
same,GI50,HCT-116 colon,1.76 µM
same,TGI,HCT-116 colon,3.71 µM
same,GI50,HCT-15 colon,1.74 µM
same,TGI,HCT-15 colon,3.81 µM
same,GI50,HL-60(TB) leukemia,3.29 µM
same,TGI,HL-60(TB) leukemia,14.8 µM
same,GI50,HOP-62 NSCLC,30 µM
same,TGI,HOP-62 NSCLC,92 µM
same,GI50,HS 578T breast,3.99 µM
same,TGI,HS 578T breast,> 100 µM
same,GI50,HT29 colon,2.15 µM
same,TGI,HT29 colon,4.73 µM
same,GI50,IGROV1 ovarian,14.5 µM
same,TGI,IGROV1 ovarian,41.7 µM
same,GI50,K-562 leukemia,2.87 µM
same,TGI,K-562 leukemia,11.3 µM
same,GI50,KM12 colon,3.63 µM
same,TGI,KM12 colon,13.8 µM
same,GI50,LOX IMVI melanoma,1.93 µM
same,TGI,LOX IMVI melanoma,3.67 µM
same,GI50,M14 melanoma,6.35 µM
same,TGI,M14 melanoma,23.6 µM
same,GI50,MALME-3M melanoma,13.1 µM
same,TGI,MALME-3M melanoma,33.6 µM
same,GI50,MCF7 breast,2.56 µM
same,TGI,MCF7 breast,25.6 µM
same,GI50,MDA-MB-231 breast,9.02 µM
same,TGI,MDA-MB-231 breast,28 µM
same,GI50,MDA-MB-435,2.74 µM
same,TGI,MDA-MB-435,8.56 µM
same,GI50,MOLT-4 leukemia,2.76 µM
same,TGI,MOLT-4 leukemia,7.74 µM
same,GI50,NCI-H226 lung,12.7 µM
same,TGI,NCI-H226 lung,27.9 µM
same,GI50,NCI-H23 lung,13.3 µM
same,TGI,NCI-H23 lung,43.6 µM
same,GI50,NCI-H460 lung,17.3 µM
same,TGI,NCI-H460 lung,72.4 µM
same,GI50,NCI-H522 lung,2.93 µM
same,TGI,NCI-H522 lung,12.2 µM
same,GI50,NCI/ADR-RES ovarian,9.38 µM
same,TGI,NCI/ADR-RES ovarian,37.7 µM
same,GI50,OVCAR-3 ovarian,3.57 µM
same,TGI,OVCAR-3 ovarian,12.6 µM
same,GI50,OVCAR-4 ovarian,12.8 µM
same,TGI,OVCAR-4 ovarian,80.1 µM
same,GI50,OVCAR-5 ovarian,16.7 µM
same,TGI,OVCAR-5 ovarian,33.2 µM
same,GI50,OVCAR-8 ovarian,3.23 µM
same,TGI,OVCAR-8 ovarian,16 µM
same,GI50,PC-3 prostate,3.6 µM
same,TGI,PC-3 prostate,15.5 µM
same,GI50,RPMI-8226 leukemia,2.1 µM
same,TGI,RPMI-8226 leukemia,4.77 µM
same,GI50,RXF 393 renal,13.2 µM
same,TGI,RXF 393 renal,29.5 µM
same,GI50,SF-268 CNS,7.17 µM
same,TGI,SF-268 CNS,34 µM
same,GI50,SF-295 CNS,9.27 µM
same,TGI,SF-295 CNS,26.2 µM
same,GI50,SF-539 CNS,11.2 µM
same,TGI,SF-539 CNS,24 µM
same,GI50,SK-MEL-2 melanoma,12.3 µM
same,TGI,SK-MEL-2 melanoma,28.8 µM
same,GI50,SK-MEL-28 melanoma,18.3 µM
same,TGI,SK-MEL-28 melanoma,47.5 µM
same,GI50,SK-MEL-5 melanoma,12.4 µM
same,TGI,SK-MEL-5 melanoma,25.1 µM
same,GI50,SK-OV-3 ovarian,30.1 µM
same,TGI,SK-OV-3 ovarian,> 100 µM
same,GI50,SN12C renal,10 µM
same,TGI,SN12C renal,34.8 µM
same,GI50,SNB-19 CNS,9.53 µM
same,TGI,SNB-19 CNS,23.2 µM
same,GI50,SNB-75 CNS,31.6 µM
same,TGI,SNB-75 CNS,> 100 µM
same,GI50,SR leukemia,1.9 µM
same,TGI,SR leukemia,6.56 µM
same,GI50,SW-620 colon,2.21 µM
same,TGI,SW-620 colon,6.01 µM
same,GI50,T-47D breast,9.27 µM
same,TGI,T-47D breast,28.6 µM
same,GI50,U251 CNS,2.18 µM
same,TGI,U251 CNS,5.38 µM
same,GI50,UACC-257 melanoma,14 µM
same,TGI,UACC-257 melanoma,36.3 µM
same,GI50,UACC-62 melanoma,4.93 µM
same,TGI,UACC-62 melanoma,20.3 µM
same,GI50,UO-31 renal,6.95 µM
same,TGI,UO-31 renal,21.1 µM
